Patent publication US8426412B2, “2-alkynyl-6-pyridin-2-yl-pyridazinones, 2-alkynyl-6-pyridin-2-yl-dihydropyridazinones, 2-alkynyl-6-pyrimidin-2-yl-pyridazinones and 2-alkynyl-6-pyrimidin-2-yl-dihydropyridazinones and their use as fungicides” (Dow AgroSciences, LLC., priority 2008, dated 2013)
≈ marks a conversion by molar mass, not a printed value. Where two headings read alike, the source gives them in different places.

Tests used:
[1] = target: T1, microsomal Δ-9 fatty acid desaturase (Saccharomyces cerevisiae, UniProt P21147); assay: Inhibition of Δ-9 fatty acid desaturase (desaturation of 14C-palmitoyl-CoA to 14C-palmitoleic acid); conditions: I50, concentration inhibiting production of palmitoleic acid by 50%; yeast microsomes, 30° C., 5 min
T1 sequence (P21147 1-510): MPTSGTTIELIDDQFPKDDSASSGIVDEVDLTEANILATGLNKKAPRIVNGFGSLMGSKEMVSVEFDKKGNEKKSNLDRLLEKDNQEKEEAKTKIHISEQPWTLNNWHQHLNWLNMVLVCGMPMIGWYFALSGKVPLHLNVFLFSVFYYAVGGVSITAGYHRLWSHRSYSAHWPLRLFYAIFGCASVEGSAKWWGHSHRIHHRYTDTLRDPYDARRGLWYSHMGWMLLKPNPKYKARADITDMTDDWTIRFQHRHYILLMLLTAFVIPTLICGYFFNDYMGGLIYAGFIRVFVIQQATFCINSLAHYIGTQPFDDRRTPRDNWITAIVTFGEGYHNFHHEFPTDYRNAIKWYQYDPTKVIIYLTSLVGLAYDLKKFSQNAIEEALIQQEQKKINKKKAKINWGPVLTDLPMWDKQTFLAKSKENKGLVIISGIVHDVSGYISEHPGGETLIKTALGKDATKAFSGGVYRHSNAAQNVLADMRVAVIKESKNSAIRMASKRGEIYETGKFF

[2] = test system: Pyricularia oryzae (PYRIOR); assay: microbe, parasite or virus in culture; format: cell-based; conditions: 72 h, read-out: EC50 PYRIOR
[3] = test system: Colletotrichum lagenarium (COLLLA); assay: Activity towards plant pathogenic fungi, growth inhibition in microtiter plates; format: cell-based; conditions: Colletotrichum orbiculare, 72 h, read-out: EC50 COLLLA
[4] = test system: Candida albicans; assay: microbe, parasite or virus in culture; format: cell-based
[5] = 50% inhibition of growth, 25° C., NepheloStar plate reader

Row | SMILES | IC50 [1] [nM] | EC50 [2] [µg/mL] | EC50 [3, 5] [µg/mL] | other results
1 | CCCCCOCC#CCn1nc(-c2ccc(Cl)cn2)ccc1=O [drawing 72] | 23.1 | – | – | –
2 | CCC#CCN1N=C(c2cc(Cl)ccn2)CCC1=O | – | 5.52 (≈ 20 µM) | 5.75 (≈ 20.9 µM) | –
3 | O=c1ccc(-c2ccc(Cl)cn2)nn1CC#CC1CC1 [drawing 101] | – | 0.062 (≈ 0.217 µM) | 0.092 (≈ 0.322 µM) | –
4 | CCC#CCN1N=C(c2ccc(Cl)c(Cl)n2)CCC1=O | – | 0.031 (≈ 0.0999 µM) | 0.036 (≈ 0.116 µM) | –
5 | CCC#CCn1nc(-c2ccc(Cl)c(Cl)n2)ccc1=O [drawing 106] | – | 0.0371 (≈ 0.12 µM) | 0.0537 (≈ 0.174 µM) | –
6 | CC(C)(C)C#C/C=C/Cn1nc(-c2ccc(Cl)cn2)ccc1=O [drawing 112] | – | 8.11 (≈ 24.7 µM) | > 40 | –
7 | O=c1ccc(-c2ccc(Cl)cn2)nn1CC#CC1CC1 [drawing 82] | 472 | – | – | –
8 | CCC#CCn1nc(-c2ccc(C(F)(F)F)cn2)ccc1=O | – | 0.674 (≈ 2.19 µM) | 0.758 (≈ 2.47 µM) | –
9 | CCC#CCn1nc(-c2ccc(Br)cn2)ccc1=O | < 123 | – | – | –
10 | CCC#CCn1nc(-c2ccc(Cl)c(F)n2)ccc1=O [drawing 114] | – | 0.0236 (≈ 0.0809 µM) | 0.048 (≈ 0.165 µM) | –
11 | CCC#CCN1N=C(c2ncc(Cl)cc2Cl)CCC1=O [drawing 110] | – | 3.47 (≈ 11.2 µM) | 8 (≈ 25.8 µM) | –
12 | CCC#CCN1N=C(c2cccc(Cl)n2)CCC1=O [drawing 103] | – | 1.01 (≈ 3.66 µM) | 3.4 (≈ 12.3 µM) | –
13 | CCC#CCN1N=C(c2nc(Cl)c(Cl)cc2Cl)CCC1=O [drawing 113] | – | 5.75 (≈ 16.7 µM) | – | EC50 [3]: 8.71 µg/mL (≈ 25.3 µM)
14 | CCC#CCN1N=C(c2cccc(Cl)n2)CCC1=O [drawing 83] | > 145000 | – | – | –
15 | C=CC#CCn1nc(-c2ccc(Cl)cn2)ccc1=O | 58.9 | – | – | –
16 | CCC#CCn1nc(-c2ccc(Cl)cn2)ccc1=O [drawing 118] | – | – | – | EC50 [4]: 0.210 µg/mL (≈ 0.767 µM)
17 | CCCCCCOCC#CCn1nc(-c2ncc(Br)cn2)ccc1=O | 39.5 | – | – | –
18 | CCC#CCn1nc(-c2ccc(Cl)c(F)n2)ccc1=O [drawing 92] | 99.4 | – | – | –
19 | CCC#CCn1nc(-c2ncc(Br)cn2)ccc1=O | 3790 | – | – | –
20 | CCC(C)CCOCC#CCn1nc(-c2ccc(Cl)cn2)ccc1=O (stereo not shown) [drawing 79] | 422 | – | – | –
21 | CCC#CCn1nc(-c2ncc(Cl)cc2Cl)ccc1=O [drawing 111] | – | 4.42 (≈ 14.3 µM) | 13.6 (≈ 44.1 µM) | –
22 | CCC#CCn1nc(-c2cccc(Cl)n2)ccc1=O [drawing 105] | – | 1.4 (≈ 5.11 µM) | 1 (≈ 3.65 µM) | –
23 | CC(C)(C)C#C/C=C/Cn1nc(-c2ccc(Cl)cn2)ccc1=O [drawing 90] | > 122000 | – | – | –
24 | CCC#CCn1nc(-c2ccc(F)c(F)n2)ccc1=O | – | 0.163 (≈ 0.592 µM) | 0.181 (≈ 0.658 µM) | –
25 | CCC#CCn1nc(-c2ncc(Cl)cc2Cl)ccc1=O [drawing 89] | > 130000 | – | – | –

Row | SMILES | IC50 [1] [nM] | EC50 [2] [µg/mL] | EC50 [3, 5] [µg/mL] | other results
26 | CCC#CCn1nc(-c2ccc(Cl)cn2)ccc1=O [drawing 96] | – | 0.0474 (≈ 0.173 µM) | 0.113 (≈ 0.413 µM) | –
27 | CCCOCCOCC#CCn1nc(-c2ccc(Cl)cn2)ccc1=O | 108 | – | – | –
28 | CCC#CCn1nc(-c2cccc(Cl)n2)ccc1=O [drawing 84] | 61400 | – | – | –
29 | CCCCOCCOCC#CCn1nc(-c2ccc(Cl)cn2)ccc1=O [drawing 99] | – | 0.05 (≈ 0.133 µM) | 0.033 (≈ 0.0878 µM) | –
30 | CCCCOCCOCC#CCn1nc(-c2ccc(Cl)cn2)ccc1=O [drawing 77] | 176 | – | – | –
31 | CCC(C)CCOCC#CCn1nc(-c2ccc(Cl)cn2)ccc1=O (stereo not shown) [drawing 100] | – | 0.284 (≈ 0.789 µM) | 1.16 (≈ 3.22 µM) | –
32 | CCCCCOCC#CCn1nc(-c2ccc(Cl)cn2)ccc1=O [drawing 117] | – | – | – | EC50 ([4]; Candida albicans, 48 h): 0.176 µg/mL (≈ 0.509 µM)
33 | CCC#CCN1N=C(c2nc(Cl)c(Cl)cc2Cl)CCC1=O [drawing 91] | > 116000 | – | – | –
34 | CCC#CCn1nc(-c2ccc(Cl)cn2)ccc1=O [drawing 70] | 121 | – | – | –
35 | CCCCCCCC#CCn1nc(-c2ncc(Br)cn2)ccc1=O | 87.3 | – | – | –
36 | CCCCOCCC#CCn1nc(-c2ccc(Cl)cn2)ccc1=O | 52 | – | – | –
37 | CCC#CCn1nc(-c2ccc(Cl)c(Cl)n2)ccc1=O [drawing 85] | 263 | – | – | –
38 | CCC#CCn1nc(-c2ncccc2Cl)ccc1=O [drawing 109] | – | > 40 | > 40 | –
39 | CCCCCCCC#CCn1nc(-c2ccc(Cl)cn2)ccc1=O | 78.5 | – | – | –
40 | CCCCOCC#CCn1nc(-c2ccc(Cl)cn2)ccc1=O | 27.1 | – | – | –
41 | CCC#CCN1N=C(c2ccc(Cl)cn2)CCC1=O | – | 0.021 (≈ 0.0762 µM) | 0.194 (≈ 0.704 µM) | –
42 | CCCCCCCOCC#CCn1nc(-c2ccc(Cl)cn2)ccc1=O [drawing 76] | 45.5 | – | – | –
43 | CCCCCCCOCC#CCn1nc(-c2ccc(Cl)cn2)ccc1=O [drawing 80] | 72.2 | – | – | –
44 | CCC#CCN1N=C(c2ncccc2Cl)CCC1=O [drawing 86] | > 145000 | – | – | –
45 | CCCOCCCC#CCn1nc(-c2ccc(Cl)cn2)ccc1=O | 28.9 | – | – | –
46 | CCC#CCn1nc(-c2ncccc2Cl)ccc1=O [drawing 87] | > 146000 | – | – | –
47 | CCC#CCN1N=C(c2ncccc2Cl)CCC1=O [drawing 108] | – | 33 (≈ 120 µM) | > 40 | –
48 | CCC#CCn1nc(-c2ccc(Cl)cn2)ccc1=O [drawing 116] | – | – | – | EC50 [4]: 0.091 µg/mL (≈ 0.332 µM)
49 | CCC#CCN1N=C(c2ncc(Cl)cc2Cl)CCC1=O [drawing 88] | > 129000 | – | – | –
50 | CCCCCOCC#CCn1nc(-c2ccc(Cl)cn2)ccc1=O [drawing 98] | – | 0.192 (≈ 0.555 µM) | 0.007 (≈ 0.0202 µM) | –
